Measured values published in PubChem BioAssay (NCI).
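Briefly, cells in 96-well plates were exposed to five compound concentrations for 48 h, and endpoints were estimated by linear interpolation. GI50: concentration for 50% inhibition of growth. Definition used: TGI = concentration required for complete inhibition of growth.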

Experiments:
Test in all cases: NCI-60 cell line screen, 48 h
[1] = system: RXF 393 renal
[2] = system: OVCAR-8 ovarian
[3] = system: SK-MEL-28 melanoma
[4] = system: COLO 205 colon
[5] = system: NCI-H460 lung
[6] = system: ACHN renal
[7] = system: SF-295 CNS
[8] = system: MCF7 breast
[9] = system: HOP-92 NSCLC
[10] = system: MDA-MB-231 breast
[11] = system: MDA-MB-435
[12] = system: EKVX NSCLC
[13] = system: A498 renal
[14] = system: UACC-257 melanoma
[15] = system: HCC-2998 colon
[16] = system: UACC-62 melanoma
[17] = system: OVCAR-5 ovarian
[18] = system: U251 CNS
[19] = system: SW-620 colon
[20] = system: 786-0 renal
[21] = system: HOP-62 NSCLC
[22] = system: CCRF-CEM leukemia
[23] = system: UO-31 renal
[24] = system: HCT-15 colon
[25] = system: SK-MEL-5 melanoma
[26] = system: LOX IMVI melanoma
[27] = system: SK-OV-3 ovarian
[28] = system: NCI-H23 lung
[29] = system: SN12C renal
[30] = system: CAKI-1 renal
[31] = system: RPMI-8226 leukemia
[32] = system: OVCAR-3 ovarian
[33] = system: SR leukemia
[34] = system: HS 578T breast
[35] = system: HL-60(TB) leukemia
[36] = system: M14 melanoma
[37] = system: SF-268 CNS
[38] = system: MALME-3M melanoma
[39] = system: HT29 colon
[40] = system: DU-145 prostate
[41] = system: BT-549 breast
[42] = system: SNB-75 CNS
[43] = system: T-47D breast
[44] = system: K-562 leukemia
[45] = system: HCT-116 colon
[46] = system: SNB-19 CNS
[47] = system: A549 NSCLC
[48] = system: SF-539 CNS
[49] = system: NCI-H226 lung
[50] = system: SK-MEL-2 melanoma
[51] = system: PC-3 prostate
[52] = system: KM12 colon
[53] = system: MOLT-4 leukemia
[54] = system: TK-10 renal
[55] = system: NCI/ADR-RES ovarian
[56] = system: IGROV1 ovarian
[57] = system: OVCAR-4 ovarian

`CC(=O)N1CC(F)(F)c2c(Sc3ncc(N4CCC5(CC4)COC[C@H]5N)nc3N)cccc21` was tested, and the GI50 [1] was 1.81 µM, the TGI [1] was 9.28 µM and the GI50 [2] was 35 µM. The TGI [2] was > 100 µM, the GI50 [3] was 16.1 µM and the TGI [3] was 30.7 µM. It also gave a GI50 [4] of 17.8 µM, a TGI [4] of 36.7 µM and a GI50 [5] of 31.8 µM. The TGI [5] was > 100 µM, the GI50 [6] was 9.03 µM and the TGI [6] was 51.4 µM. For the same molecule, the GI50 [7] was 15.2 µM, the TGI [7] was 50.7 µM and the GI50 [8] was 15.8 µM. For the same molecule, the TGI [8] was 55.6 µM, the GI50 [9] was 0.259 µM and the TGI [9] was 3.64 µM. The GI50 [10] was 17.3 µM, the TGI [10] was 41.5 µM and the GI50 [11] was 31 µM. For the same molecule, the TGI [11] was > 100 µM, the GI50 [12] was 8.27 µM and the TGI [12] was > 100 µM. It also gave a GI50 [13] of 0.402 µM, a TGI [13] of 4.18 µM and a GI50 [14] of 22.8 µM. For the same molecule, the TGI [14] was 62 µM, the GI50 [15] was 28.3 µM and the TGI [15] was 94.1 µM. It also gave a GI50 [16] of 18 µM, a TGI [16] of 36.1 µM and a GI50 [17] of 15.4 µM. The TGI [17] was > 100 µM, the GI50 [18] was 11.1 µM and the TGI [18] was 52.5 µM. It also gave a GI50 [19] of 16.8 µM, a TGI [19] of 54.4 µM and a GI50 [20] of 10.8 µM. For the same molecule, the TGI [20] was 27.1 µM, the GI50 [21] was 3.69 µM and the TGI [21] was 75.1 µM. It also gave a GI50 [22] of 18.7 µM, a TGI [22] of 68.5 µM and a GI50 [23] of 2.96 µM. For the same molecule, the TGI [23] was 25.8 µM, the GI50 [24] was 24 µM and the TGI [24] was 96.8 µM. The GI50 [25] was 16 µM, the TGI [25] was 30.1 µM and the GI50 [26] was 16.6 µM. For the same molecule, the TGI [26] was 32.1 µM, the GI50 [27] was 3.75 µM and the TGI [27] was > 100 µM. For the same molecule, the GI50 [28] was 3.35 µM, the TGI [28] was > 100 µM and the GI50 [29] was 25.8 µM. The TGI [29] was > 100 µM, the GI50 [30] was 3.68 µM and the TGI [30] was 30 µM. The GI50 [31] was 12.4 µM, the TGI [31] was 42.7 µM and the GI50 [32] was 16.9 µM. It also gave a TGI [32] of 61.5 µM, a GI50 [33] of 8.16 µM and a TGI [33] of 35.8 µM. The GI50 [34] was 14.6 µM, the TGI [34] was 59.1 µM and the GI50 [35] was 18.3 µM. For the same molecule, the TGI [35] was 36.4 µM, the GI50 [36] was 17.9 µM and the TGI [36] was 37.8 µM. For the same molecule, the GI50 [37] was 17.4 µM, the TGI [37] was > 100 µM and the GI50 [38] was 15.5 µM. For the same molecule, the TGI [38] was 31.5 µM, the GI50 [39] was 14.2 µM and the TGI [39] was 52.9 µM. For the same molecule, the GI50 [40] was 25.7 µM, the TGI [40] was > 100 µM and the GI50 [41] was 10.8 µM. It also gave a TGI [41] of 53.7 µM, a GI50 [42] of 3.19 µM and a TGI [42] of 38.2 µM. The GI50 [43] was 17.6 µM, the TGI [43] was > 100 µM and the GI50 [44] was 2.11 µM. It also gave a TGI [44] of 20.7 µM, a GI50 [45] of 17.7 µM and a TGI [45] of 46.6 µM. For the same molecule, the GI50 [46] was 14.4 µM, the TGI [46] was > 100 µM and the GI50 [47] was 23.1 µM. For the same molecule, the TGI [47] was > 100 µM, the GI50 [48] was 11.2 µM and the TGI [48] was 23.3 µM. The GI50 [49] was 20.9 µM, the TGI [49] was > 100 µM and the GI50 [50] was 24.7 µM. The TGI [50] was > 100 µM, the GI50 [51] was 29.8 µM and the TGI [51] was > 100 µM. For the same molecule, the GI50 [52] was 22.1 µM, the TGI [52] was > 100 µM and the GI50 [53] was 21.1 µM. For the same molecule, the TGI [53] was 67.7 µM, the GI50 [54] was 0.991 µM and the TGI [54] was 35.8 µM. For the same molecule, the GI50 [55] was 27.6 µM, the TGI [55] was > 100 µM and the GI50 [56] was 2.47 µM. For the same molecule, the TGI [56] was 86.9 µM, the GI50 [57] was 10.5 µM and the TGI [57] was 96.6 µM.
